As usually defined, the IC50 is the point on the concentration scale where inhibition reaches its midpoint. Higher therefore signals lower potency.

The text below walks through data of patent US8859569B2, “Substituted annellated pyrimidines and use thereof” (Bayer Pharma Aktiengesellschaft, priority 2011, dated 2014).

Assay [1] deals with T1, human phosphodiesterase 5 (PDE-5) (Homo sapiens, UniProt O76074).
T1 construct: PDE-5 preparations are obtained from human platelets by lysis; from tissue; host or cells: human platelets
Kind of assay: Inhibition of human phosphodiesterase 5 (PDE-5), SPA assay. As to conditions: PDE-5 preparation from human platelets, [8-3H]cGMP substrate. It is filed as biochemical. A digest of the protocol: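 PDE-5 partially purified from human platelets by Mono Q chromatography, diluted so under 70% of [8-3H]cGMP (0.025 μCi) converted. Compounds at 4 μM to 0.0018 μM final, Tris-HCl pH 7.5 with MgCl2, 60 min at room temperature. Yttrium SPA beads stop reaction; IC50 from concentration–inhibition plots.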

Assay [2] deals with aorta rings. Kind of assay: Vessel-relaxing action in vitro (aorta rings, phenylephrine contraction). As to conditions: Oryctolagus cuniculus, concentration required to reduce phenylephrine-induced contraction of rabbit aorta rings by 50%. A digest of the protocol:
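Rabbit aortic rings 1.5 mm wide were held under preload in carbogen-gassed Krebs-Henseleit at 37 °C and contracted with cumulative phenylephrine. Test substance was added in rising doses on successive passes, each compared with the preceding control contraction. IC50 is the concentration that halves contraction, with 0.1% DMSO in the bath.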

The target of assay [3] is T2, recombinant guanylate cyclase reporter cell line (Rattus norvegicus, UniProt P19686+P20595).
T2 construct: expressed in transfected cells
T2 sequence (P20595 1-619): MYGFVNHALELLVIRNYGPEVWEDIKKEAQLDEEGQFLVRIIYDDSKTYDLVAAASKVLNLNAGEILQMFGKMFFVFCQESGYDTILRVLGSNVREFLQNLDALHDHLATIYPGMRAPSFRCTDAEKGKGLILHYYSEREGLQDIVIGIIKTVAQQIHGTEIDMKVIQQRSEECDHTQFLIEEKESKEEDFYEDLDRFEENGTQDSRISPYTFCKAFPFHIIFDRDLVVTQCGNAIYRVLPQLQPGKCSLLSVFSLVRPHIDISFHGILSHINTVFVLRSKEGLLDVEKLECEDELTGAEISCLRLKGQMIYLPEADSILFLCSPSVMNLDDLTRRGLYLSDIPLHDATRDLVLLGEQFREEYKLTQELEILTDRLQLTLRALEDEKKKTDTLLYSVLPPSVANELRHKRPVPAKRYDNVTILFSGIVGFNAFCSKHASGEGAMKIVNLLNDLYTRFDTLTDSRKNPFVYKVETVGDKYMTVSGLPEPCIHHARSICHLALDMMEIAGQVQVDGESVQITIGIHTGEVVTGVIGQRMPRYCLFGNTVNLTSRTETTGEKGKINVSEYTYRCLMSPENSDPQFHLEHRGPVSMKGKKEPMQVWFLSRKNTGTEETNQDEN
T2 sequence (P19686 1-690): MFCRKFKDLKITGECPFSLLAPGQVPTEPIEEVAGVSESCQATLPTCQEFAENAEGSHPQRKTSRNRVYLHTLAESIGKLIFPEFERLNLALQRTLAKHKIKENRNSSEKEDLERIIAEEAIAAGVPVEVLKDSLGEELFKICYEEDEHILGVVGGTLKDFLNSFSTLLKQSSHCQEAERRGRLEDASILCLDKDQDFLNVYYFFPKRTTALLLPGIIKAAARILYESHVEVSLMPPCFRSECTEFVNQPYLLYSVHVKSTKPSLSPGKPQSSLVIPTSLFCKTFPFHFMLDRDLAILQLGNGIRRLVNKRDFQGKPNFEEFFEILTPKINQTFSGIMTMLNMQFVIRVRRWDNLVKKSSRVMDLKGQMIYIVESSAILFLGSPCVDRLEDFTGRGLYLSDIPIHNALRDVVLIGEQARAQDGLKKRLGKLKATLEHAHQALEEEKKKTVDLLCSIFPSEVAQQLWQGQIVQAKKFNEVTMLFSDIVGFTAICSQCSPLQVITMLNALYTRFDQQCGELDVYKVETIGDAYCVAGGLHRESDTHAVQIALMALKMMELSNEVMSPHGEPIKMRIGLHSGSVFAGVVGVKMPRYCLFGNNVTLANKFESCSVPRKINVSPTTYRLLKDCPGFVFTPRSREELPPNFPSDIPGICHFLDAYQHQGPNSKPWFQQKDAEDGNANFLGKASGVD
Kind of assay: Action on recombinant guanylate cyclase reporter cell line. It is filed as cell-based. The method, then: B-2. Action on Recombinant Guanylate Cyclase Reporter Cell Line
The cellular action of the compounds according to the invention is determined on a recombinant guanylate cyclase reporter cell line, as described in F. Wunder et al., Anal. Biochem. 339, 104-112 (2005).

On to `CC1(C)C(=O)Nc2nc(-c3nn(Cc4ccccc4F)c4ncc(F)cc34)nc(NCC3(O)CC3)c21` [Example 98, 2-[5-Fluoro-1-(2-fluorobenzyl)-1H-pyrazolo[3,4-b]pyridin-3-yl]-4-{[(1-hydroxycyclopropyl)methyl]amino}-5,5-dimethyl-5,7-dihydro-6H-pyrrolo[2,3-d]pyrimidin-6-one], for which the values for the IC50 in assay [1] and in assay [2] were 4 nM and 214 nM, respectively. The “MEC (minimal effective concentration)” value in assay [3] is given as 0.01 μm.

`CC(O)c1ccn(-c2nc(-c3nn(Cc4ccccc4F)c4ncccc34)nc3c2C(C)(C)C(=O)N3)n1` (stereo not drawn) [Example 28, 2-[1-(2-Fluorobenzyl)-1H-pyrazolo[3,4-b]pyridin-3-yl]-4-[3-(1-hydroxyethyl)-1H-pyrazol-1-yl]-5,5-dimethyl-5,7-dihydro-6H-pyrrolo[2,3-d]pyrimidin-6-one]: the values for the IC50 in assay [1] and in assay [2] were 110 nM and 98 nM, respectively. In addition, the “MEC (minimal effective concentration)” value in assay [3] is 0.3 μm.

For `CC1(C)C(=O)Nc2nc(-c3nn(Cc4ccccc4F)c4ncccc34)nc(N3CC(C(F)(F)F)CCC3=O)c21` (stereo not drawn) [Example 91, 2-[1-(2-Fluorobenzyl)-1H-pyrazolo[3,4-b]pyridin-3-yl]-5,5-dimethyl-4-[2-oxo-5-(trifluoromethyl)piperidin-1-yl]-5,7-dihydro-6H-pyrrolo[2,3-d]pyrimidin-6-one], the IC50 in assay [1] was determined as 600 nM; in assay [2] it was 517 nM. For the same compound, the “MEC (minimal effective concentration)” value in assay [3] is given as 0.03 μm.

In the case of `CCCOc1nc(-c2nn(Cc3ccccc3F)c3ncccc23)nc2c1C(C)(C)C(=O)N2` [Example 111, 2-[1-(2-Fluorobenzyl)-1H-pyrazolo[3,4-b]pyridin-3-yl]-5,5-dimethyl-4-propoxy-5,7-dihydro-6H-pyrrolo[2,3-d]pyrimidin-6-one], the IC50 worked out at 320 nM in assay [1] and 1620 nM in assay [2]. Also, the “MEC (minimal effective concentration)” value in assay [3] is reported as 0.3 μm.

Turning to `CC1(C)C(=O)Nc2nc(-n3nc(Cc4ccccc4F)c4ccccc43)nc(NCCC(F)(F)F)c21` [Example 35, 2-[3-(2-Fluorobenzyl)-1H-indazol-1-yl]-5,5-dimethyl-4-[(3,3,3-trifluoropropyl)amino]-5,7-dihydro-6H-pyrrolo[2,3-d]pyrimidin-6-one], the results for the IC50 in assay [1] and in assay [2] were 110 nM and greater than 10000 nM, respectively. The “MEC (minimal effective concentration)” value in assay [3] amounted to 0.3 μm.

As for `CC1(C)C(=O)Nc2nc(-n3nc(Cc4ccccc4F)c4cc(F)ccc43)nc(NCCC(F)(F)F)c21` [Example 37], the IC50 came out at 100 nM in assay [1] and 3870 nM in assay [2]. For the same compound, in assay [3], the “MEC (minimal effective concentration)” value stood at 0.3 μm.

Take `CC1(C)C(=O)Nc2nc(-c3nn(Cc4ccccc4F)c4c3CCC4)nc(NCC(F)(F)F)c21` [Example 19, 2-[1-(2-Fluorobenzyl)-1,4,5,6-tetrahydrocyclopenta[c]pyrazol-3-yl]-5,5-dimethyl-4-[(2,2,2-trifluoroethyl)amino]-5,7-dihydro-6H-pyrrolo[2,3-d]pyrimidin-6-one]: the results for the IC50 in assay [1] and in assay [2] were 280 nM and 1280 nM, respectively. Also, the “MEC (minimal effective concentration)” value in assay [3] is reported as 0.3 μm.

Regarding `CC1(C)C(=O)Nc2nc(-n3nc(Cc4ccccc4F)c4cc(F)ccc43)nc(OCCC(F)(F)F)c21` [Example 34, 2-[5-Fluoro-3-(2-fluorobenzyl)-1H-indazol-1-yl]-5,5-dimethyl-4-(3,3,3-trifluoropropoxy)-5,7-dihydro-6H-pyrrolo[2,3-d]pyrimidin-6-one], the figures for the IC50 in assay [1] and in assay [2] were 550 nM and 6150 nM, respectively. The “MEC (minimal effective concentration)” value in assay [3] turned out to be 1.0 μm.

Consider `CC1(C)C(=O)Nc2nc(-c3nn(Cc4ccccc4F)c4c3CCC4)nc(NCCC(F)(F)F)c21` [Example 20, 2-[1-(2-Fluorobenzyl)-1,4,5,6-tetrahydrocyclopenta[c]pyrazol-3-yl]-5,5-dimethyl-4-[(3,3,3-trifluoropropyl)amino]-5,7-dihydro-6H-pyrrolo[2,3-d]pyrimidin-6-one], for which the IC50 in assay [1] amounted to 900 nM; in assay [2], 1870 nM. Further, the “MEC (minimal effective concentration)” value in assay [3] is 0.3 μm.

Regarding `CC1(C)C(=O)Nc2nc(-c3nn(Cc4ncccc4F)c4ncc(F)cc34)nc(N3CC(F)C3)c21` [Example 15, 4-(3-Fluoroazetidin-1-yl)-2-{5-fluoro-1-[(3-fluoropyridin-2-yl)methyl]-1H-pyrazolo[3,4-b]pyridin-3-yl}-5,5-dimethyl-5,7-dihydro-6H-pyrrolo[2,3-d]pyrimidin-6-one], the IC50 in assay [1] came out at 430 nM; in assay [2], 453 nM. Also, the “MEC (minimal effective concentration)” value in assay [3] is recorded as 1.0 μm.

Regarding `CC1(C)C(=O)Nc2nc(-c3nn(Cc4ccccc4F)c4ncccc34)nc(O)c21` [Example 109, 2-[1-(2-Fluorobenzyl)-1H-pyrazolo[3,4-b]pyridin-3-yl]-4-hydroxy-5,5-dimethyl-5,7-dihydro-6H-pyrrolo[2,3-d]pyrimidin-6-one], the results for the IC50 in assay [1] and in assay [2] were 50 nM and 81 nM, respectively. The “MEC (minimal effective concentration)” value in assay [3] is recorded as 0.03 μm.

With `CC1(C)C(=O)Nc2nc(-c3nn(Cc4ccccc4F)c4ncccc34)nc(-n3cc(C(F)(F)F)cn3)c21` [Example 29, 2-[1-(2-Fluorobenzyl)-1H-pyrazolo[3,4-b]pyridin-3-yl]-5,5-dimethyl-4-[4-(trifluoromethyl)-1H-pyrazol-1-yl]-5,7-dihydro-6H-pyrrolo[2,3-d]pyrimidin-6-one], the IC50 in assay [1] is greater than 4000 nM; in assay [2], 11400 nM. Besides, the “MEC (minimal effective concentration)” value in assay [3] is 1.0 μm.

Consider `CC(=O)NC1CCN(c2nc(-c3nn(Cc4ccccc4F)c4ncccc34)nc3c2C(C)(C)C(=O)N3)C1` (stereo not drawn) [Example 94, N-(1-{2-[1-(2-Fluorobenzyl)-1H-pyrazolo[3,4-b]pyridin-3-yl]-5,5-dimethyl-6-oxo-6,7-dihydro-5H-pyrrolo[2,3-d]pyrimidin-4-yl}pyrrolidin-3-yl)acetamide], for which the results for the IC50 in assay [1] and in assay [2] were 140 nM and 277 nM, respectively. In addition, the “MEC (minimal effective concentration)” value in assay [3] was found to be 0.1 μm.

In the case of `CC1(C)C(=O)Nc2nc(-c3nc(Cc4c(F)ccc(F)c4F)n4cc(Cl)ccc34)nc(NCCC(F)(F)F)c21` [Example 13, 2-[6-Chloro-3-(2,3,6-trifluorobenzyl)imidazo[1,5-a]pyridin-1-yl]-5,5-dimethyl-4-[(3,3,3-trifluoropropyl)amino]-5,7-dihydro-6H-pyrrolo[2,3-d]pyrimidin-6-one], the half-inhibitory concentration (IC50) was 80 nM in assay [1] and 4970 nM in assay [2]. Also, the “MEC (minimal effective concentration)” value in assay [3] was found to be 0.1 μm.

Consider `Cc1cc(C)n(-c2nc(-c3nn(Cc4ccccc4F)c4ncccc34)nc3c2C(C)(C)C(=O)N3)n1` [Example 23, 4-(3,5-Dimethyl-1H-pyrazol-1-yl)-2-[1-(2-fluorobenzyl)-1H-pyrazolo[3,4-b]pyridin-3-yl]-5,5-dimethyl-5,7-dihydro-6H-pyrrolo[2,3-d]pyrimidin-6-one], for which the IC50 in assay [1] amounted to 1600 nM; in assay [2], 2860 nM. Also, the “MEC (minimal effective concentration)” value in assay [3] stood at 0.1 μm.
